Experimental data taken from US9302999B2, “Substituted triazoles as herbicides” (E. I. DU PONT DE NEMOURS AND COMPANY, priority 2012, dated 2016).

Assays:
Assay type in all cases: in vivo
[1] = test system: johnsongrass (Sorghum halepense); experiment: Test C pre-/postemergence: johnsongrass
Outline: (§1)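 Preemergence on seeds in loam/sand, postemergence on 2–18 cm (1–4-leaf) plants in peat-based medium; compounds in non-phytotoxic solvent with surfactant. After 13–15 days in greenhouse, visual rating versus controls, 0 (no effect) to 100 (complete control).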

[2] = test system: galium (catchweed bedstraw, Galium aparine); experiment: Test C pre-/postemergence: galium
Outline: as §1

[3] = test system: crabgrass, large (large crabgrass, Digitaria sanguinalis); experiment: Test A pre-/postemergence: crabgrass, large
Outline: (§2)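 Rating scale 0–100 (100 = complete control), visual, ~10 days after application in the greenhouse. Applications: preemergence directed soil spray; postemergence at 1–2 leaves.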

wild oat (Avena fatua) = experiment: Test C pre-/postemergence: wild oat
Outline: as §1

[4] = test system: large crabgrass (Digitaria sanguinalis); experiment: Test C pre-/postemergence: large crabgrass
Outline: as §1

corn (Zea mays) = experiment: Test A pre-/postemergence: corn
Outline: as §2

[5] = test system: ryegrass, Italian (Italian ryegrass, Lolium multiflorum); experiment: Test C pre-/postemergence: ryegrass, Italian
Outline: as §1

[6] = test system: pigweed (Amaranthus retroflexus); experiment: Test C pre-/postemergence: pigweed
Outline: as §1

[7] = test system: blackgrass (Alopecurus myosuroides); experiment: Test C pre-/postemergence: blackgrass
Outline: as §1

[8] = test system: lambsquarters (Chenopodium album); experiment: Test C pre-/postemergence: lambsquarters
Outline: as §1

[9] = test system: barnyardgrass (Echinochloa crus-galli); experiment: Test A pre-/postemergence: barnyardgrass
Outline: as §2

[10] = test system: nutsedge, yellow (yellow nutsedge, Cyperus esculentus); experiment: Test C pre-/postemergence: nutsedge, yellow
Outline: as §1

[11] = Postemergence, 31 g ai/ha, scale 0 to 100 (0 no effect, 100 complete control)
[12] = Postemergence, 62 g ai/ha, scale 0 to 100 (0 no effect, 100 complete control)
[13] = Postemergence, 125 g ai/ha, scale 0 to 100, 0 no effect, 100 complete control
[14] = Postemergence, 250 g ai/ha, scale 0 to 100
[15] = Preemergence, 31 g ai/ha, scale 0 (no effect) to 100 (complete control)
[16] = Preemergence, 62 g ai/ha, scale of 0 to 100, 0 is no effect, 100 is complete control
[17] = Preemergence, 125 g ai/ha, scale 0 to 100, 0 no effect, 100 complete control
[18] = Preemergence, 250 g ai/ha, scale 0 to 100, 0 no effect, 100 complete control
[19] = Postemergence, 125 g ai/ha, 0 to 100 scale, 0 is no effect, 100 is complete control
[20] = Postemergence, 500 g ai/ha, 0 to 100 scale, 0 is no effect, 100 is complete control
[21] = Preemergence, 125 g ai/ha, 0 to 100 scale where 0 is no effect and 100 is complete control
[22] = Preemergence, 500 g ai/ha, 0 to 100 scale (0 no effect, 100 complete control)
[23] = Preemergence, 31 g ai/ha, scale of 0 to 100, 0 is no effect, 100 is complete control
[24] = Postemergence, 500 g ai/ha, visual rating on 0 to 100 scale (0 no effect, 100 complete control), approximately ten days

With `CCc1nn(-c2ccc(F)cc2)nc1Oc1ccnc(C(F)(F)F)c1` [Compound 166] the “Plant response rating, Johnsongrass” value [1, 11] was 10, the “Plant response rating, Johnsongrass” value [1, 12] was 15 and the “Plant response rating, Johnsongrass” value [1, 13] was 20. For the same compound, the “Plant response rating, Johnsongrass” value [1, 14] was 20, the “Plant response rating, Johnsongrass” value [1, 15] was 10 and the “Plant response rating, Johnsongrass” value [1, 16] was 30. The “Plant response rating, Johnsongrass” value [1, 17] was 75, the “Plant response rating, Johnsongrass” value [1, 18] was 100 and the “Plant response rating, Galium” value [2, 11] was 50. For the same compound, the “Plant response rating, Galium” value [2, 12] was 50, the “Plant response rating, Galium” value [2, 13] was 60 and the “Plant response rating, Galium” value [2, 14] was 80. For the same compound, the “Plant response rating, Galium” value [2, 15] was 10, the “Plant response rating, Galium” value [2, 16] was 10 and the “Plant response rating, Galium” value [2, 17] was 90. The “Plant response rating, Galium” value [2, 18] was 100, the “Plant response rating, Crabgrass, Large” value [3, 19] was 90 and the “Crabgrass, Large plant response rating” value [3, 20] was 90. The “Plant response rating, Crabgrass, Large” value [3, 21] was 100, the “Plant response rating, Crabgrass, Large” value [3, 22] was 100 and the “Plant response rating, Oat, Wild” value (wild oat (Avena fatua); [11]) was 15. For the same compound, the “Plant response rating, Oat, Wild” value (wild oat (Avena fatua); [12]) was 20, the “Plant response rating, Oat, Wild” value (wild oat (Avena fatua); [14]) was 30 and the “Plant response rating, Crabgrass, Large” value [4, 11] was 15. The “Plant response rating, Crabgrass, Large” value [4, 12] was 15, the “Plant response rating, Crabgrass, Large” value [4, 13] was 20 and the “Plant response rating, Crabgrass, Large” value [4, 14] was 40. The “Plant response rating, Crabgrass, Large” value [4, 15] was 85, the “Plant response rating, Crabgrass, Large” value [4, 16] was 98 and the “Plant response rating, Crabgrass, Large” value [4, 17] was 100. For the same compound, the “Plant response rating, Crabgrass, Large” value [4, 18] was 100, the “Plant response rating, Corn” value (corn (Zea mays); [19]) was 20 and the “Corn plant response rating” value (corn (Zea mays); [20]) was 30. For the same compound, the “Plant response rating, Corn” value (corn (Zea mays); [21]) was 10, the “Plant response rating, Corn” value (corn (Zea mays); [22]) was 30 and the “Plant response rating, Ryegrass, Italian” value [5, 11] was 5. For the same compound, the “Plant response rating, Ryegrass, Italian” value [5, 12] was 5, the “Plant response rating, Ryegrass, Italian” value [5, 13] was 20 and the “Plant response rating, Ryegrass, Italian” value [5, 14] was 25. The “Plant response rating, Ryegrass, Italian” value [5, 15] was 5, the “Plant response rating, Ryegrass, Italian” value [5, 16] was 40 and the “Plant response rating, Ryegrass, Italian” value [5, 17] was 50. For the same compound, the “Plant response rating, Ryegrass, Italian” value [5, 18] was 100, the “Plant response rating, Pigweed” value [6, 11] was 35 and the “Plant response rating, Pigweed” value [6, 12] was 85. The “Plant response rating, Pigweed” value [6, 13] was 95, the “Plant response rating, Pigweed” value [6, 14] was 98 and the “Plant response rating, Pigweed” value [6, 15] was 100. The “Plant response rating, Pigweed” value [6, 16] was 100, the “Plant response rating, Pigweed” value [6, 17] was 100 and the “Plant response rating, Pigweed” value [6, 18] was 100. For the same compound, the “Plant response rating, Blackgrass” value [7, 11] was 10, the “Plant response rating, Blackgrass” value [7, 12] was 20 and the “Plant response rating, Blackgrass” value [7, 13] was 40. The “Plant response rating, Blackgrass” value [7, 14] was 60, the “Plant response rating, Blackgrass” value [7, 15] was 15 and the “Plant response rating, Blackgrass” value [7, 16] was 90. For the same compound, the “Plant response rating, Blackgrass” value [7, 17] was 90, the “Plant response rating, Blackgrass” value [7, 18] was 95 and the “Plant response rating, Lambsquarters” value [8, 11] was 60. The “Plant response rating, Lambsquarters” value [8, 12] was 95, the “Plant response rating, Lambsquarters” value [8, 13] was 95 and the “Plant response rating, Lambsquarters” value [8, 14] was 98. The “Plant response rating, Barnyardgrass” value [9, 19] was 70, the “Barnyardgrass plant response rating” value [9, 20] was 90 and the “Plant response rating, Barnyardgrass” value [9, 21] was 90. The “Plant response rating, Barnyardgrass” value [9, 22] was 100, the “Plant response rating, Nutsedge, Yellow” value [10, 11] was 0 and the “Plant response rating, Nutsedge, Yellow” value [10, 12] was 5. For the same compound, the “Plant response rating, Nutsedge, Yellow” value [10, 13] was 5, the “Plant response rating, Nutsedge, Yellow” value [10, 14] was 10 and the “Plant response rating, Nutsedge, Yellow” value [10, 15] was 0. For the same compound, the “Plant response rating, Nutsedge, Yellow” value [10, 16] was 0, the “Plant response rating, Nutsedge, Yellow” value [10, 17] was 5 and the “Plant response rating, Nutsedge, Yellow” value [10, 18] was 15.
For `Fc1ccc(-n2nc(Cc3ccnc(C(F)(F)F)c3)c(OCC(F)(F)F)n2)cc1` [Compound 142], the “Plant response rating, Johnsongrass” value [1, 11] was 55, the “Plant response rating, Johnsongrass” value [1, 12] was 70 and the “Plant response rating, Johnsongrass” value [1, 13] was 80. The “Plant response rating, Johnsongrass” value [1, 14] was 80, the “Plant response rating, Johnsongrass” value [1, 23] was 90 and the “Plant response rating, Johnsongrass” value [1, 16] was 98. For the same compound, the “Plant response rating, Johnsongrass” value [1, 17] was 100, the “Plant response rating, Johnsongrass” value [1, 18] was 100 and the “Plant response rating, Galium” value [2, 11] was 80. The “Plant response rating, Galium” value [2, 12] was 80, the “Plant response rating, Galium” value [2, 13] was 90 and the “Plant response rating, Galium” value [2, 14] was 90. The “Plant response rating, Galium” value [2, 23] was 60, the “Plant response rating, Galium” value [2, 16] was 80 and the “Plant response rating, Galium” value [2, 17] was 100. For the same compound, the “Plant response rating, Galium” value [2, 18] was 100, the “Crabgrass, Large plant response rating” value [3, 19] was 100 and the “Crabgrass, Large plant response rating” value [3, 24] was 100. For the same compound, the “Plant response rating, Crabgrass, Large” value [3, 21] was 100, the “Plant response rating, Crabgrass, Large” value [3, 22] was 100 and the “Plant response rating, Oat, Wild” value (wild oat (Avena fatua); [11]) was 35. The “Plant response rating, Oat, Wild” value (wild oat (Avena fatua); [12]) was 45, the “Plant response rating, Oat, Wild” value (wild oat (Avena fatua); [13]) was 70 and the “Plant response rating, Oat, Wild” value (wild oat (Avena fatua); [14]) was 70. For the same compound, the “Plant response rating, Oat, Wild” value (wild oat (Avena fatua); [23]) was 85, the “Plant response rating, Oat, Wild” value (wild oat (Avena fatua); [16]) was 85 and the “Plant response rating, Oat, Wild” value (wild oat (Avena fatua); [17]) was 85. For the same compound, the “Plant response rating, Oat, Wild” value (wild oat (Avena fatua); [18]) was 90, the “Plant response rating, Crabgrass, Large” value [4, 11] was 65 and the “Plant response rating, Crabgrass, Large” value [4, 12] was 80. The “Plant response rating, Crabgrass, Large” value [4, 13] was 95, the “Plant response rating, Crabgrass, Large” value [4, 14] was 95 and the “Plant response rating, Crabgrass, Large” value [4, 23] was 100. For the same compound, the “Plant response rating, Crabgrass, Large” value [4, 16] was 100, the “Plant response rating, Crabgrass, Large” value [4, 17] was 100 and the “Plant response rating, Crabgrass, Large” value [4, 18] was 100. The “Corn plant response rating” value (corn (Zea mays); [19]) was 50, the “Corn plant response rating” value (corn (Zea mays); [24]) was 80 and the “Plant response rating, Corn” value (corn (Zea mays); [21]) was 30. The “Plant response rating, Corn” value (corn (Zea mays); [22]) was 80, the “Plant response rating, Ryegrass, Italian” value [5, 11] was 10 and the “Plant response rating, Ryegrass, Italian” value [5, 12] was 40. For the same compound, the “Plant response rating, Ryegrass, Italian” value [5, 13] was 50, the “Plant response rating, Ryegrass, Italian” value [5, 14] was 50 and the “Plant response rating, Ryegrass, Italian” value [5, 23] was 30. The “Plant response rating, Ryegrass, Italian” value [5, 16] was 90, the “Plant response rating, Ryegrass, Italian” value [5, 17] was 90 and the “Plant response rating, Ryegrass, Italian” value [5, 18] was 90. For the same compound, the “Plant response rating, Pigweed” value [6, 11] was 98, the “Plant response rating, Pigweed” value [6, 12] was 98 and the “Plant response rating, Pigweed” value [6, 13] was 98. The “Plant response rating, Pigweed” value [6, 14] was 98, the “Plant response rating, Pigweed” value [6, 23] was 98 and the “Plant response rating, Pigweed” value [6, 16] was 98. For the same compound, the “Plant response rating, Pigweed” value [6, 17] was 100, the “Plant response rating, Pigweed” value [6, 18] was 100 and the “Plant response rating, Blackgrass” value [7, 11] was 55. For the same compound, the “Plant response rating, Blackgrass” value [7, 12] was 60, the “Plant response rating, Blackgrass” value [7, 13] was 80 and the “Plant response rating, Blackgrass” value [7, 14] was 90. For the same compound, the “Plant response rating, Blackgrass” value [7, 23] was 90, the “Plant response rating, Blackgrass” value [7, 16] was 90 and the “Plant response rating, Blackgrass” value [7, 17] was 90. The “Plant response rating, Blackgrass” value [7, 18] was 90, the “Plant response rating, Lambsquarters” value [8, 11] was 80 and the “Plant response rating, Lambsquarters” value [8, 12] was 98. For the same compound, the “Plant response rating, Lambsquarters” value [8, 13] was 98, the “Plant response rating, Lambsquarters” value [8, 14] was 98 and the “Plant response rating, Lambsquarters” value [8, 23] was 80. The “Plant response rating, Lambsquarters” value [8, 16] was 90, the “Plant response rating, Lambsquarters” value [8, 17] was 95 and the “Plant response rating, Lambsquarters” value [8, 18] was 98. The “Barnyardgrass plant response rating” value [9, 19] was 100, the “Barnyardgrass plant response rating” value [9, 24] was 100 and the “Plant response rating, Barnyardgrass” value [9, 21] was 100. For the same compound, the “Plant response rating, Barnyardgrass” value [9, 22] was 100, the “Plant response rating, Nutsedge, Yellow” value [10, 11] was 5 and the “Plant response rating, Nutsedge, Yellow” value [10, 12] was 5. For the same compound, the “Plant response rating, Nutsedge, Yellow” value [10, 13] was 15, the “Plant response rating, Nutsedge, Yellow” value [10, 14] was 20 and the “Plant response rating, Nutsedge, Yellow” value [10, 23] was 0. For the same compound, the “Plant response rating, Nutsedge, Yellow” value [10, 17] was 0 and the “Plant response rating, Nutsedge, Yellow” value [10, 18] was 0.
